Reference: PMC10734772 (Turkish Journal of Chemistry, 2021)

Assays:
Type in all cases: cell-based
[1] = test system: K562, Nalm-6, Molt-4, Reh, Jurkat, Hek293T cell lines; experiment: MTT assay, overall judgement over all cell lines; conditions: overall judgement in words; for 6 and 10: on all cell lines, except Reh
In short: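 MTT viability assay run across a range of compound concentrations in leukemic lines, BCR-ABL positive K562 and BCR-ABL negative Nalm-6, Molt-4, Reh, Jurkat, plus non-leukemic Hek293T. Viability rate calculated per concentration.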

K562 = experiment: MTT assay, K562 cells; conditions: Homo sapiens, 24 h, MTT, read-out: Viability rate
Nalm-6 = experiment: MTT assay, Nalm-6 cells; conditions: Homo sapiens, 24 h
[2] = MTT assay, Hek293T non-leukemic control cells; conditions: human, read-out: Viability rate
Reh = experiment: MTT assay, Reh cells; conditions: Homo sapiens, 24 h, read-out: Viability rate
Molt-4 = experiment: MTT assay, Molt-4 cells; conditions: Homo sapiens, MOLT-4, 24 h, read-out: Viability rate
Jurkat = experiment: MTT assay, Jurkat cells; conditions: Homo sapiens, 24 h, read-out: Viability rate

Cc1ccnc(Nc2cc(NC(=O)c3ccc(CN4CCOCC4)cc3)ccc2C)c1 [Compound 9, N-(4-Methyl-3-((4-methylpyridin-2-yl)amino)phenyl)-4-(morhpolinomethyl)benzamide]
anticancer activity according to MTT assay results [1]: relatively lower activity
viability at 0.3 µM (K562; K562, 0.3 μM): 79.9 ± 0.09%
viability at 0.5 µM (K562; K562, 0.5 μM): 78.5 ± 0.03%
viability at 1 µM (K562; K562, 1 μM): 77.3 ± 0.08%
viability at 3 µM (K562; K562, 3 μM): 77 ± 0.04%
viability at 5 µM (K562; K562, 5 μM): 75.4 ± 0.09%
viability at 10 µM (K562; K562, 10 μM): 73.2 ± 0.08%
viability at 15 µM (K562; K562, 15 μM): 72 ± 0.06%
viability at 20 µM (K562; K562, 20 μM): 69.1 ± 0.03%
viability at 30 µM (K562; K562, 30 μM): 69.7 ± 0.07%
viability at 50 µM (K562; K562, 50 μM): 61.2 ± 0.08%
viability at 70 µM (K562; K562, 70 μM): 58.1 ± 0.1%
viability at 100 µM (K562; K562, 100 μM): 51.3 ± 0.06%
viability at 150 µM (K562; K562, 150 μM): 49.7 ± 0.05%
viability at 200 µM (K562; K562, 200 μM): 45%
viability at 0.3 µM (Nalm-6; Nalm-6, 0.3 μM, MTT, read-out: Viability rate): 86.4 ± 0.05%
viability at 0.5 µM (Nalm-6; Nalm-6, 0.5 μM, MTT, read-out: Viability rate): 85.2 ± 0.05%
viability at 1 µM (Nalm-6; Nalm-6, 1 μM, MTT, read-out: Viability rate): 72.7 ± 0.04%
viability at 3 µM (Nalm-6; Nalm-6, 3 μM, MTT, read-out: Viability rate): 64.5 ± 0.02%
viability at 5 µM (Nalm-6; Nalm-6, 5 μM, MTT, read-out: Viability rate): 62.6 ± 0.04%
viability at 10 µM (Nalm-6; Nalm-6, 10 μM, MTT, read-out: Viability rate): 53.2 ± 0.03%
viability at 15 µM (Nalm-6; Nalm-6, 15 μM, MTT, read-out: Viability rate): 50.1 ± 0.03%
viability at 20 µM (Nalm-6; Nalm-6, 20 μM, MTT, read-out: Viability rate): 49.2 ± 0.01%
viability at 30 µM (Nalm-6; Nalm-6, 30 μM, MTT, read-out: Viability rate): 48.1 ± 0.01%
viability at 50 µM (Nalm-6; Nalm-6, 50 μM, MTT, read-out: Viability rate): 43.9 ± 0.01%
viability at 70 µM (Nalm-6; Nalm-6, 70 μM, MTT, read-out: Viability rate): 42.8 ± 0.01%
viability at 100 µM (Nalm-6; Nalm-6, 100 μM, MTT, read-out: Viability rate): 42.5 ± 0.01%
viability at 150 µM (Nalm-6; Nalm-6, 150 μM, MTT, read-out: Viability rate): 42.5 ± 0.01%
viability at 200 µM (Nalm-6; Nalm-6, 200 μM, MTT, read-out: Viability rate): 39.2%
IC50 (Nalm-6; Nalm-6, MTT, range 0.3–200 μM, six replicates): 1640 nM
viability at 24 h, 0.3 µM ([2]; Hek293T cells (non-leukemic control cell line), 0.3 μM): 91.7 ± 0.07%
viability at 24 h, 0.5 µM ([2]; Hek293T cells (non-leukemic control cell line), 0.5 μM): 89.8 ± 0.07%
viability at 24 h, 3 µM ([2]; Hek293T cells (non-leukemic control cell line), 3 μM): 87.4 ± 0.07%
viability at 24 h, 5 µM ([2]; Hek293T cells (non-leukemic control cell line), 5 μM): 86.2 ± 0.03%
viability at 24 h, 10 µM ([2]; Hek293T cells (non-leukemic control cell line), 10 μM): 79.3 ± 0.05%
viability at 24 h, 15 µM ([2]; Hek293T cells (non-leukemic control cell line), 15 μM): 78.3 ± 0.03%
viability at 24 h, 20 µM ([2]; Hek293T cells (non-leukemic control cell line), 20 μM): 76.5 ± 0.05%
viability at 24 h, 30 µM ([2]; Hek293T cells (non-leukemic control cell line), 30 μM): 68.9 ± 0.03%
viability at 24 h, 50 µM ([2]; Hek293T cells (non-leukemic control cell line), 50 μM): 62.2 ± 0.02%
viability at 24 h, 70 µM ([2]; Hek293T cells (non-leukemic control cell line), 70 μM): 56.2 ± 0.04%
viability at 24 h, 100 µM ([2]; Hek293T cells (non-leukemic control cell line), 100 μM): 54.8 ± 0.02%
viability at 24 h, 150 µM ([2]; Hek293T cells (non-leukemic control cell line), 150 μM): 46.9 ± 0.02%
viability at 24 h, 200 µM ([2]; Hek293T cells (non-leukemic control cell line), 200 μM): 42.8 ± 0.02%
viability at 24 h, 1 µM ([2]; Hek293T cells, 1 μM): 89.5 ± 0.05%
viability at 0.3 µM (Reh; 0.3 μM): 103.8 ± 0.01%
viability at 0.5 µM (Reh; 0.5 μM): 101.3 ± 0.03%
viability at 1 µM (Reh; 1 μM): 100.4 ± 0.01%
viability at 3 µM (Reh; 3 μM): 100.5 ± 0.02%
viability at 5 µM (Reh; 5 μM): 101.8 ± 0.03%
viability at 10 µM (Reh; 10 μM): 103.4 ± 0.02%
viability at 15 µM (Reh; 15 μM): 100.2 ± 0.02%
viability at 20 µM (Reh; 20 μM): 99 ± 0.02%
viability at 30 µM (Reh; 30 μM): 91.4 ± 0.01%
viability at 50 µM (Reh; 50 μM): 88.2 ± 0.02%
viability at 70 µM (Reh; 70 μM): 84.7 ± 0.03%
viability at 100 µM (Reh; 100 μM): 87.1 ± 0.02%
viability at 150 µM (Reh; 150 μM): 85 ± 0.01%
viability at 200 µM (Reh; 200 μM): 82 ± 0.02%
viability at 0.3 µM (Molt-4; Molt-4, 0.3 μM): 93.2 ± 0.17%
viability at 0.5 µM (Molt-4; Molt-4, 0.5 μM): 87.8 ± 0.05%
viability at 1 µM (Molt-4; Molt-4, 1 μM): 78.4 ± 0.11%
viability at 3 µM (Molt-4; Molt-4, 3 μM): 72.7 ± 0.04%
viability at 5 µM (Molt-4; Molt-4, 5 μM): 71.7 ± 0.07%
viability at 10 µM (Molt-4; Molt-4, 10 μM): 69.3 ± 0.04%
viability at 15 µM (Molt-4; Molt-4, 15 μM): 68.9 ± 0.05%
viability at 20 µM (Molt-4; Molt-4, 20 μM): 63.5 ± 0.04%
viability at 30 µM (Molt-4; Molt-4, 30 μM): 62 ± 0.03%
viability at 50 µM (Molt-4; Molt-4, 50 μM): 61.5 ± 0.07%
viability at 70 µM (Molt-4; Molt-4, 70 μM): 59.8 ± 0.05%
viability at 100 µM (Molt-4; Molt-4, 100 μM): 59.5 ± 0.08%
viability at 150 µM (Molt-4; Molt-4, 150 μM): 58.6 ± 0.06%
viability at 200 µM (Molt-4; Molt-4, 200 μM): 54.7 ± 0.03%
viability at 0.3 µM (Jurkat; 0.3 μM): 82.3 ± 0.05%
viability at 0.5 µM (Jurkat; 0.5 μM): 82 ± 0.06%
viability at 1 µM (Jurkat; 1 μM): 82 ± 0.05%
viability at 3 µM (Jurkat; 3 μM): 81.7 ± 0.05%
viability at 5 µM (Jurkat; 5 μM): 83 ± 0.04%
viability at 10 µM (Jurkat; 10 μM): 81.9 ± 0.02%
viability at 15 µM (Jurkat; 15 μM): 80.4 ± 0.02%
viability at 20 µM (Jurkat; 20 μM): 79 ± 0.04%
viability at 30 µM (Jurkat; 30 μM): 72.9 ± 0.07%
viability at 50 µM (Jurkat; 50 μM): 68.1 ± 0.01%
viability at 70 µM (Jurkat; 70 μM): 65.1 ± 0.02%
viability at 100 µM (Jurkat; 100 μM): 49.6 ± 0.07%
viability at 150 µM (Jurkat; 150 μM): 46.9 ± 0.05%
viability at 200 µM (Jurkat; 200 μM): 39.1 ± 0.04%
